Data on 1 molecule can be found in ChEMBL document CHEMBL5661967, “Antitumor activity of HKI-272, an orally active, irreversible inhibitor of the HER-2 tyrosine kinase” (Cancer Res, 2004).

As usually defined, the IC50 is the midpoint of a concentration-inhibition curve.

The target in the test is Receptor tyrosine-protein kinase erbB-2 (Homo sapiens, UniProt P04626). Briefly: Inhibition of recombinant N-terminal His6-tagged HER2 cytoplasmic domain (676 to 1255 residues) (unknown origin) expressed in baculovirus infected Sf9 insect cells assessed as reduction in autophosphorylation preincubated for 15 mins followed by ATP addition and measured after 1 hr by ELISA. (In general: In an ELISA, binding on a coated surface is turned into a signal by an enzyme label.)
Receptor tyrosine-protein kinase erbB-2, sequence (P04626 whole entry, the tested form may be a part): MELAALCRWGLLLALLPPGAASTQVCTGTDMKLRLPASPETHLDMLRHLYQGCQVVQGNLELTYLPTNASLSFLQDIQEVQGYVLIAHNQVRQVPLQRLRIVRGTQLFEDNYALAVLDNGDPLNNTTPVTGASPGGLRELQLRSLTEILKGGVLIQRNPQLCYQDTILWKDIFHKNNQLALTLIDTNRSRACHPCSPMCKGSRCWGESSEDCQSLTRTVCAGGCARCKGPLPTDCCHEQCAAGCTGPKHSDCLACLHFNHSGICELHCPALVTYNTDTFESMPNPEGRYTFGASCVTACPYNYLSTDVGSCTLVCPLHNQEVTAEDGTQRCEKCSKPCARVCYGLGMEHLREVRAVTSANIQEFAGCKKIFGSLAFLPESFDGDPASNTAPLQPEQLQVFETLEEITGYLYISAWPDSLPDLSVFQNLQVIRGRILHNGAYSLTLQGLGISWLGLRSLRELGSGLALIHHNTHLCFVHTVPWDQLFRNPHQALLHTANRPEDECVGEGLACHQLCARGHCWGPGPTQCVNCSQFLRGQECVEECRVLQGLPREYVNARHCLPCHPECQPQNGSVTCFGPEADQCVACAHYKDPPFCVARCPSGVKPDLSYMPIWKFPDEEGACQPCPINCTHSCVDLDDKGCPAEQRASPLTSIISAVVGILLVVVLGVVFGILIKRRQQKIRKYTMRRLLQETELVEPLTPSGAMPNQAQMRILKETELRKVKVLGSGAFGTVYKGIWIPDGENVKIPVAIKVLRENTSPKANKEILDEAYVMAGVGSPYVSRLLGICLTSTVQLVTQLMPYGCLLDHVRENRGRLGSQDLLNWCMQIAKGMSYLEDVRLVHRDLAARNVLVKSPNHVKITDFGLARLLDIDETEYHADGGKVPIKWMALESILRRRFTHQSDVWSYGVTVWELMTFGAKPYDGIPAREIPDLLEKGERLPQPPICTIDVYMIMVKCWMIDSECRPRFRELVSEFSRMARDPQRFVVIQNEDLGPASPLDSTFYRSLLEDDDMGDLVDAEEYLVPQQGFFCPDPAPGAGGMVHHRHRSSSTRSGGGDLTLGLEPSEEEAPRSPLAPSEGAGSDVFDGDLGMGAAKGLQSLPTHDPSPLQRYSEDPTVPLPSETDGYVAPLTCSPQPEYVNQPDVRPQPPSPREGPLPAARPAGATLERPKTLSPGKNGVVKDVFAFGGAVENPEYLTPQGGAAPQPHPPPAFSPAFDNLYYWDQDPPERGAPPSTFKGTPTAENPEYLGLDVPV

On to `CCOc1cc2ncc(C#N)c(Nc3ccc(F)c(Cl)c3)c2cc1NC(=O)/C=C/CN(C)C` [PELITINIB], for which the IC50 stood at 1260 nM.
